This note sets out measurements from patent US7030087B2, “Synthetic approach to designed chemical structures” (priority 1996, dated 2006).

Test [1] relates to P. aeruginosa. Briefly: Bactericidal activity assay. It counts as cell-based, Pseudomonas aeruginosa type 1. The gist of the method:
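Log-phase P. aeruginosa type 1 (smooth clinical isolate) was grown in brain heart infusion broth, washed, and diluted 1:10 from about 3×10^8 CFU/ml into 0.08M citrate phosphate buffer at pH 5.6 or pH 7.0. Peptides were tested from about […] to 4.1×10^−9M, with LD50 derived from dose response by linear regression.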

Test [2] relates to HUVEC. Put plainly: Leukocyte/EC adhesion assay. It counts as cell-based, human. As to conditions: bFGF 10 ng/ml + PF4 100 μg/ml. On the procedure: Functional impact for the observed phenomena was provided by leukocyte/EC adhesion assays as described earlier (Griffioen et al. Cancer Res. 56:1111–1117, 1996). […] TNF mediated upregulation of adhesion to bFGF preincubated HUVEC in the presence of PF4 was similar to the adhesion to TNF treated control cells. PHA-activated peripheral blood T lymphocyte were adhered for 1 hour at 37° C. to TNF-α (4 ng/ml), bFGF (10 ng/ml)+PF4 (100 μg/ml) treated, or control (HUVEC). Non-adhering cells were removed and adhered cells were enumerated by an inverted microscope. Values of one representative experiment out of three are expressed as numbers of adhered cells per high power field. Statistical significance is determined by the Student's t-test.

Test [3] relates to EC (endothelial cells). Put plainly: EC proliferation, 3[H]thymidine incorporation assay. It counts as cell-based. How it is done:
Since the in vivo situation of tumor associated EC involves the low expression or even absence of ICAM-1, the next set of experiments aimed to study the ability to reinduce ICAM-I expression after bFBF preincubation. […] In these experiments, HUVEC were pretreated for 3 days with bFGF, subsequently PF4 was added for 3 days and, where indicated in the last 16 hours of culture 4 ng/ml TNFα was added. Human umbilical vein derived endothelial cells (HUVEC) were harvested from normal human umbilical cords by perfusion with 0.125% trypsin/EDTA as described previously. Cells were cultured in fibronectin (FN) coated tissue culture flasks in culture medium (RPMI-1640 with 20% human serum (HS), supplemented with 2 mM glutamine and 100 U/ml penicillin and 0.1 mg/ml streptomycin). Immunofluorescence using indirect PE-conjugated reagents required three separate incubations. 1×10^5 EC were fixed for 1 hour in 1% paraformaldehyde, resuspended in 20 μl appropriately diluted Mab and incubated for 1 hour on ice. Subsequently, cells were washed two times in PBS/BSA (0.1%) and incubated for another 30 minutes with biotinylated rabbit-anti-mouse Ig (Dako, Glostrup, Denmark). After another 2 washings, cells were incubated with streptavidin-phycoerythrin conjugate (Dako). Stained cells were analyzed on a FACScan flowcytometer. Data analysis was performed using PCLysys software (Becton Dickinson, Mountain View, Calif.). Statistical significance of observed differences was determined using the Student's t-test.
EC proliferation was measured using a ^3[H]thymidine incorporation assay. EC were seeded in flatbottomed 96-well tissue culture plates (5000 cells/well) and grown for 3 days, in culture medium. In some cultures the proliferation of EC was enhanced by incubation with 10 ng/ml bFGF. During the list 6 hours of the assay, the culture was pulsed with 0.5 μCi [methyl-^3H]thymidine/well. Results are expressed as the arithmetic mean counts per minute (cpm) of triplicate cultures.

Test [4] has as its system endotoxin from E. coli 055:B5. Put plainly: Limulus amoebocyte lysate assay (E-TOXATE), endotoxin neutralization. It counts as biochemical. The gist of the method:
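Peptide preincubated with LPS 5 min at room temperature in 1:2 pyrogen-free saline (pH 6.4), then amoebocyte lysate added (E-TOXATE kit). Neutralization of endotoxin activity scored by Limulus lysate reaction; BG38L served as positive control.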

Regarding platelet factor 4 [PF4], the “Bactericidal Activity, % killing” value in test [1] (1.2 × 10^−7 M Peptide, 5 × 105 P. aeruginosa) is 0%. In addition, the “Bactericidal Activity, % killing at the effective dose” value in test [1] (at the Ed for the same peptide) was 19%. Besides, the “Bactericidal Activity, Ed, Effective M dose” value in test [1] (dose at which the % in brackets was found) was determined as 1.5 µM. In test [2], the “bFGF mediated inhibition of leukocyte adhesion to cultured HUVEC (in words)” value is “completely abolished”. The “(3H)-thymidine incorporation” value in test [3] (expt 1, 1 μg/ml, 10 ng/ml bFGF, medium 28815 ± 1007) came out at 28782 ± 815 cpm; in test [3] (expt 1, 1 μg/ml, no bFGF, medium 4044 ± 206), 4656 ± 456 cpm; in test [3] (expt 1, 10 μg/ml, 10 ng/ml bFGF, medium 28815 ± 1007) it was 23868 ± 402 cpm; in test [3] (expt 1, 10 μg/ml, no bFGF, medium 4044 ± 206) it was 4066 ± 351 cpm; in test [3] (expt 1, 100 μg/ml, 10 ng/ml bFGF, medium 28815 ± 1007), 4655 ± 421 cpm; in test [3] (expt 1, 100 μg/ml, no bFGF, medium 4044 ± 206), 1651 ± 172 cpm. Also, the “(3H)-thymidine incorporation” value in test [3] (expt 2 (second, r19), 1 μg/ml, 10 ng/ml bFGF, medium 52808 ± 4092) worked out at 43524 ± 5318 cpm; in test [3] (expt 2 (second, r19), 1 μg/ml, no bFGF, medium 6780 ± 713) it was 6171 ± 1227 cpm; in test [3] (expt 2 (second, r19), 10 μg/ml, 10 ng/ml bFGF, medium 52808 ± 4092), 8337 ± 704 cpm; in test [3] (expt 2 (second, r19), 10 μg/ml, no bFGF, medium 6780 ± 713), 3547 ± 317 cpm; in test [3] (expt 2 (second, r19), 100 μg/ml, 10 ng/ml bFGF, medium 52808 ± 4092), 1654 ± 375 cpm; in test [3] (expt 2 (second, r19), 100 μg/ml, no bFGF, medium 6780 ± 713), 947 ± 170 cpm. Moreover, the “endotoxin neutralizing activity (in words)” value in test [4] is “no endotoxin neutralizing activity”. Besides, the “Endotoxin Neutralizing Activity, % neutralization” value in test [4] (5.0 × 10^−5 M peptide, 0.02 U (0.2 pg) endotoxin from E. coli 055:B5, Table 3) is 0%. In addition, in test [4] (5.0 × 10^−6 M Peptide, 0.02 U (0.2 pg) endotoxin from E. coli 055:B5, Table 4), the “Endotoxin Neutralization, % neutralization” value stood at 0%. Besides, the “Endotoxin Neutralization, % at the effective dose” value in test [4] (Table 3, at the ED printed in the same cell) was found to be 23%; in test [4] (Table 4, at the Ed), 0%. Also, the “Endotoxin neutralization, ED, Effective M dose” value in test [4] (Table 3, dose at which the % in brackets was found) was 50 µM. In addition, the “Endotoxin Neutralization, Ed, Effective M dose” value in test [4] (Table 4, dose at which the % in brackets was found) amounted to 50 µM.
